{
  "source": "paper PMC10380083",
  "about": "“Synthesis of Prostate-Specific Membrane Antigen-Targeted Bimodal Conjugates of Cytotoxic Agents and Antiandrogens and Their Comparative Assessment with Monoconjugates” (International Journal of Molecular Sciences, 2023)",
  "key": {"[1]": {"test_system": "22Rv1 human prostate carcinoma xenograft", "conditions": "22Rv1 xenograft; for tumor volume V±m: i.v. triple injection, single dose 132.3 nM/kg; for Tumor growth inhibition: i.v. 132.3 nM/kg three times"}, "[2]": {"test_system": "PC-3 prostate adenocarcinoma xenograft", "conditions": "PC-3 xenograft; for tumor volume V±m: i.v. triple injection, single dose 132.3 nM/kg; for Tumor growth inhibition: i.v. 132.3 nM/kg three times"}, "[3]": {"experiment": "Body weight, general condition and mortality in the antitumor efficacy study", "conditions": "i.v. 132.3 nM/kg x3"}, "[4]": {"conditions": "7 day after tumor implantation (1st injection)"}, "[5]": {"conditions": "12 day after tumor implantation (2nd injection)"}, "[6]": {"conditions": "33 day after tumor implantation"}, "[7]": {"conditions": "37 day after tumor implantation"}, "[8]": {"conditions": "days after the start of treatment: 1"}, "[9]": {"conditions": "days after the start of treatment: 5"}, "[10]": {"conditions": "days after the start of treatment: 10"}, "[11]": {"conditions": "days after the start of treatment: 16"}, "[12]": {"conditions": "days after the start of treatment: 20"}},
  "note": "Where two headings read alike, the source gives them in different places. *1 amine or outer side, *2 acyl side, *3 side chain or, on linkers, in order; H or OH if unused. Where a SMILES comes first, the peptide text is derived from it. [ ]: non-standard residue; d: D form. The star is where a group is joined. GluureaLys(ε-3-ClBenzyl) = O=C(O)CC[C@H](NC(=O)N[C@@H](CCCCN(Cc1cccc(Cl)c1)*)C(=O)O)C(=O)O; X3 = CC1(C)C(=O)N(c2ccc(C#N)c(C(F)(F)F)c2)C(=S)N1c1ccc(C(=O)*)c(F)c1; Dolaproine = CO[C@@H]([C@@H]1CCCN1)[C@@H](C)C(=O)O; Dil = CC[C@H](C)[C@H](NC)[C@@H](CC(=O)O)OC; X2 = O=C(CCCc1cn(CCCN[*:1])nn1)[*:2]; PABC = O=C(OCc1ccc(N[*:1])cc1)[*:2]; X1 = C[C@@H](N*)[C@@H](O)c1ccccc1; Cit = NC(=O)NCCC[C@H](N)C(=O)O; Suc = O=C(CCC(=O)[*:2])[*:1]; NMeV = CN[C@H](C(=O)O)C(C)C; Ahx = NCCCCCC(=O)O",
  "data": [
    {"smiles": "CC[C@H](C)[C@@H]([C@@H](CC(=O)N1CCC[C@H]1[C@H](OC)[C@@H](C)C(=O)N[C@H](C)[C@@H](O)c1ccccc1)OC)N(C)C(=O)[C@@H](NC(=O)[C@H](C(C)C)N(C)C(=O)OCc1ccc(NC(=O)[C@H](CCCNC(N)=O)NC(=O)[C@@H](NC(=O)CCCc2cn(CCCNC(=O)[C@H](CCCCNC(=O)c3ccc(N4C(=S)N(c5ccc(C#N)c(C(F)(F)F)c5)C(=O)C4(C)C)cc3F)NC(=O)[C@H](Cc3ccc(O)cc3)NC(=O)[C@H](Cc3ccccc3)NC(=O)CCC(=O)NCCCCCC(=O)N(CCCC[C@H](NC(=O)N[C@@H](CCC(=O)O)C(=O)O)C(=O)O)Cc3cccc(Cl)c3)nn2)C(C)C)cc1)C(C)C", "note": "[compound 15] ({GluureaLys(ε-3-ClBenzyl)-Ahx-Suc}-FYK(X3)[X2]V[Cit][PABC][NMeV]V[Dil][Dolaproine]-X1)", "values": [
      {"measurement": "tumor volume V±m", "setting": "[1]; [4]", "value": "73.3±8.8", "unit": "mm3"},
      {"measurement": "tumor volume V±m", "setting": "[1]; [5]", "value": "64.7±15.3", "unit": "mm3"},
      {"measurement": "tumor volume V±m", "setting": "[1]; 17 day after tumor implantation (3rd injection)", "value": "76.1±46.5", "unit": "mm3"},
      {"measurement": "tumor volume V±m", "setting": "[1]; 22 day after tumor implantation", "value": 171.6, "unit": "mm3"},
      {"measurement": "tumor volume V±m", "setting": "[1]; [6]", "value": 650.1, "unit": "mm3"},
      {"measurement": "tumor volume V±m", "setting": "[1]; [7]", "value": 988.7, "unit": "mm3"},
      {"measurement": "Tumor growth inhibition", "setting": "[1]; [8]", "value": 64.5, "unit": "%"},
      {"measurement": "Tumor growth inhibition", "setting": "[1]; [9]", "value": 67.6, "unit": "%"},
      {"measurement": "Tumor growth inhibition", "setting": "[1]; [10]", "value": 71.3, "unit": "%"},
      {"measurement": "Tumor growth inhibition", "setting": "[1]; [11]", "value": 67.9, "unit": "%"},
      {"measurement": "Tumor growth inhibition", "setting": "[1]; [12]", "value": 65.4, "unit": "%"},
      {"measurement": "tumor volume V±m", "setting": "[2]; [4]", "value": "83.1±6.8", "unit": "mm3"},
      {"measurement": "tumor volume V±m", "setting": "[2]; [5]", "value": 117.6, "unit": "mm3"},
      {"measurement": "tumor volume V±m", "setting": "[2]; 27 day after tumor implantation", "value": 534.3, "unit": "mm3"},
      {"measurement": "tumor volume V±m", "setting": "[2]; [6]", "value": 819.8, "unit": "mm3"},
      {"measurement": "tumor volume V±m", "setting": "[2]; [7]", "value": 1318.4, "unit": "mm3"},
      {"measurement": "Tumor growth inhibition", "setting": "[2]; [8]", "value": 20.5, "unit": "%"},
      {"measurement": "Tumor growth inhibition", "setting": "[2]; [9]", "value": 18.5, "unit": "%"},
      {"measurement": "Tumor growth inhibition", "setting": "[2]; [10]", "value": 36.5, "unit": "%"},
      {"measurement": "Tumor growth inhibition", "setting": "[2]; [11]", "value": 39.7, "unit": "%"},
      {"measurement": "Tumor growth inhibition", "setting": "[2]; [12]", "value": 51.7, "unit": "%"},
      {"measurement": "TGI, did not exceed", "setting": "[2]; i.v. 132.3 nM/kg three times at five-day intervals, male Balb/c nude mice", "value": "≤ 51.7", "unit": "%"},
      {"measurement": "body weight, mass ± error", "setting": "[3]; 22Rv1 xenograft mice, 7 day after tumor implantation (1st injection)", "value": "25.2 ± 1.2", "unit": "g"},
      {"measurement": "body weight, mass ± error", "setting": "[3]; 22Rv1 xenograft mice, 12 day after tumor implantation (2nd injection)", "value": "25.0 ± 1.2", "unit": "g"},
      {"measurement": "body weight, mass ± error", "setting": "[3]; 22Rv1 xenograft mice, 17 day after tumor implantation (3rd injection)", "value": "25.0 ± 1.2", "unit": "g"},
      {"measurement": "body weight, mass ± error", "setting": "[3]; 22Rv1 xenograft mice, 22 day after tumor implantation", "value": "25.2 ± 1.3", "unit": "g"},
      {"measurement": "body weight, mass ± error", "setting": "[3]; 22Rv1 xenograft mice, 27 day after tumor implantation", "value": "25.1 ± 1.3", "unit": "g"},
      {"measurement": "body weight, mass ± error", "setting": "[3]; 22Rv1 xenograft mice, 33 day after tumor implantation", "value": "25.2 ± 1.3", "unit": "g"},
      {"measurement": "body weight, mass ± error", "setting": "[3]; 22Rv1 xenograft mice, 37 day after tumor implantation", "value": "25.5 ± 1.5", "unit": "g"},
      {"measurement": "body weight, mass ± error", "setting": "[3]; PC-3 xenograft mice, 7 day after tumor implantation (1st injection)", "value": "23.9 ± 2.1", "unit": "g"},
      {"measurement": "body weight, mass ± error", "setting": "[3]; PC-3 xenograft mice, 12 day after tumor implantation (2nd injection)", "value": "23.8 ± 2.1", "unit": "g"},
      {"measurement": "body weight, mass ± error", "setting": "[3]; PC-3 xenograft mice, 17 day after tumor implantation (3rd injection)", "value": "24.0 ± 2.2", "unit": "g"},
      {"measurement": "body weight, mass ± error", "setting": "[3]; PC-3 xenograft mice, 22 day after tumor implantation", "value": "24.4 ± 2.3", "unit": "g"},
      {"measurement": "body weight, mass ± error", "setting": "[3]; PC-3 xenograft mice, 27 day after tumor implantation", "value": "24.8 ± 2.1", "unit": "g"},
      {"measurement": "body weight, mass ± error", "setting": "[3]; PC-3 xenograft mice, 33 day after tumor implantation", "value": "24.9 ± 1.8", "unit": "g"},
      {"measurement": "body weight, mass ± error", "setting": "[3]; PC-3 xenograft mice, 37 day after tumor implantation", "value": "25.1 ± 1.9", "unit": "g"}
    ]}
  ]
}
